Ends that are not written are not given here.
Columns and labels:
calcium ion channel V6 = molecular target: T1, calcium ion channel V6 (Homo sapiens, UniProt Q9H1D0); test: Caco-2 calcium uptake with calcium ion channel V6 inhibitor ruthenium red; assay type: cell-based; conditions: 6 mM calcium ions, 400 μM peptide of SEQ ID No. 1
T1 construct: endogenous in cells; host or cells: Caco-2
T1 sequence (Q9H1D0 1-765): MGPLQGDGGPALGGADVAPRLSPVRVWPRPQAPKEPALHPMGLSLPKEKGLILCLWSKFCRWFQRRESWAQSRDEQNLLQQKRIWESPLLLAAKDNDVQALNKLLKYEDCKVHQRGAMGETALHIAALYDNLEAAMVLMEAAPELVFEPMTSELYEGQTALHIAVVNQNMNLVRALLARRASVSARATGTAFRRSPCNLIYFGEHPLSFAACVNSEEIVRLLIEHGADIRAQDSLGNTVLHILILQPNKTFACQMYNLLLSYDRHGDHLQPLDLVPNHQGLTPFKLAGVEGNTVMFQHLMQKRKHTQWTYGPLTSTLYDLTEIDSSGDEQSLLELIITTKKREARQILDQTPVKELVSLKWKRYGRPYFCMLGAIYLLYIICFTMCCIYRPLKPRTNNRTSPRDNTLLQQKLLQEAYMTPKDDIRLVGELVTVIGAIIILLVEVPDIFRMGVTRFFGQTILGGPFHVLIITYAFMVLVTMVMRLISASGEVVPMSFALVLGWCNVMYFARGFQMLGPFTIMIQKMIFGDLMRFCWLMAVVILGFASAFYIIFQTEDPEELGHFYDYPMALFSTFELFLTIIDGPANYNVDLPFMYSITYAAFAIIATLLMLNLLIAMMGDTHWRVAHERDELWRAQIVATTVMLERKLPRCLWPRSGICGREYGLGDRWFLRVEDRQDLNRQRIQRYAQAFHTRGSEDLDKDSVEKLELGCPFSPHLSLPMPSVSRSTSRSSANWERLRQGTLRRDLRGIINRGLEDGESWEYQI
Description: The steps were the same as those described in Example 5, except that the calcium ion channel V6 inhibitor: ruthenium red (RUR) was administered at the 154th second.

Caco-2 cells = test: Calcium uptake in Fluo-3-AM loaded Caco-2 cells (fluorescence intensity); assay type: cell-based, human
Description: The Caco-2 cell monolayer was cultured in a 10 cm2 culture dish containing DEME medium, and the cells were separated by TrypLE (Invitrogen, Carlsbad, Calif.) and washed several times with a phosphate-free KRH (Krebs Ringer Heps) solution. 5 μL of 1 mM Fluo-3-AM dye and 20% (w/v) thermally reversible hydrogel (Pluronic F-127, RF127) solution were added at 37° C. for about 30 minutes to obtain a Caco-2 cell suspension.
The Caco-2 cell suspension containing Fluo-3-AM dye was thoroughly rinsed in phosphate-free KRH solution and aliquoted, each aliquot containing 5×10^7 cells. After each aliquot was pelletized, the cells were resuspended in 240 μL of the phosphate-free KRH solution, and then transferred to a 96-well plate for use.

[1] = 400 μM peptide, 6 mM calcium ions, compared with 400 μM CPP group and no-peptide group

N.N.N.N.N.N.N.N.N.N.N.N.N.N.[Cl-].[Cl-].[Cl-].[Cl-].[Cl-].[Cl-].[O-2].[O-2].[Ru+3].[Ru+3].[Ru+4] [ruthenium red]
percentage decrease of peak calcium ion (peak [Ca2+]) compared to the first group (calcium ion channel V6; ruthenium red 10 μM (second group) vs 0 μM): 41.9% | percentage decrease of peak calcium ion (peak [Ca2+]) compared to the first group (calcium ion channel V6; ruthenium red 20 μM (third group) vs 0 μM): 57.3% | percentage decrease of peak calcium ion (peak [Ca2+]) compared to the first group (calcium ion channel V6; ruthenium red 50 μM (fourth group) vs 0 μM): 72.0% | percentage decrease of peak calcium ion (peak [Ca2+]) compared to the first group (calcium ion channel V6; ruthenium red 100 μM (fifth group) vs 0 μM): 86.7%

SEQ ID No. 2: peptide of SEQ ID No. 1 with the C-terminal 5 amino acids removed (TEVPAINTIASA)
calcium-absorption promotion ability (Caco-2 cells; Example 17, FIG. 36, Caco-2 cells): have the ability to promote calcium absorption

TEVPAINTIASAEPTVH [SEQ ID No. 1]
calcium ion concentration (peak [Ca2+]) in Caco-2 cells (Caco-2 cells; [1]): significantly increased | fluorescence intensity in Caco-2 cells (Caco-2 cells; [1]): significantly higher | fluorescence intensity in Caco-2 cells (Caco-2 cells; at the 442th second, 0 mM calcium ions (first group), 400 μM peptide): 7,059,148 | fluorescence intensity in Caco-2 cells (Caco-2 cells; at the 442th second, 0.3 mM calcium ions (second group), 400 μM peptide): 9,780,517 | fluorescence intensity in Caco-2 cells (Caco-2 cells; at the 442th second, 0.5 mM calcium ions (third group), 400 μM peptide): 9,720,348 | fluorescence intensity in Caco-2 cells (Caco-2 cells; at the 442th second, 1.5 mM calcium ions (fourth group), 400 μM peptide): 10,604,175 | fluorescence intensity in Caco-2 cells (Caco-2 cells; at the 442th second, 3 mM calcium ions (fifth group), 400 μM peptide): 10,986,171 | fluorescence intensity in Caco-2 cells (Caco-2 cells; at the 442th second, 6 mM calcium ions (sixth group), 400 μM peptide): 10,912,015

Source: patent publication US10829517B2, “Method for treating or/and preventing calcium deficiency-related diseases” (National Chung Hsing University, priority 2017, dated 2020)
